Results as given in patent US5217953A, “Vasoactive intestinal peptide antagonist” (The United States of America as represented by the …, priority 1990, dated 1993).
Read-outs that look alike come from different tables or passages of the source. No end group written: not given here.

Experiments:
[1] = target: NSCLC VIP receptors (EPLC-65H membranes); test: 125I-VIP binding to EPLC-65H membranes; conditions: for IC50 / Kd: EPLC-65H membranes; for IC50: 37° C., 60 min, read-out: IC50, inhibition of specific 125I-VIP binding
Description: The binding properties and the adenylate cyclase activity of the VIP receptor in NSCLC cell lines were investigated. NSCLC cells were cultured in RPMI-1640 containing 10% heat inactivated fetal bovine serum (Carney et al. (1985) Cancer Res. 45:2913-2923). When a monolayer formed, the adherent cells were washed with PBS and treated with trypsin/EDTA. The cells were pelleted and resuspended in serum supplemented medium and incubated at 37° C. in 5% CO2 /95% air. Routinely the cells were passed 1/1 weekly and experiments were conducted when the cells were in exponential growth phase.
Cells were rinsed twice in PBS. Membranes were prepared from EPLC-65H by lysing cells in 20 mM Tris.HCl (pH7.5), 1 mg/ml bacitracin, 1 mM PMSF and 0.25M sucrose. The cells were sonicated (15 sec, 120 W) and the membranes centrifuged at 500×g for 5 min in a Beckman J-21 B centrifuge at 4° C. The supernatant was saved and the pellet resuspended, homogenized and centrifuged. The supernatants were combined and centrifuged at 50,000×g for 30 min. The pellet, which contains plasma membranes, was resuspended and 50 μg of membrane protein and 2×10^5 cpm of ^125 I-VIP (2200 Ci/mmol) was added to each assay tube in a total volume of 100 μl; the buffer was 50 mM Tris.maleate, 2 mM MgCl2, 2% BSA, 500 KIU/ml trasylol and 0.2 mg/ml bacitracin. The samples were incubated at 37° C. for 60 min. To terminate the reaction, the incubation solution was centrifuged for 3 min in a microfuge B. The supernatant, which contained free peptide was removed and the top of the pellet rinsed three times with cold assay buffer. The pellet, which contained bound ^125 I-VIP was counted in a gamma counter.
^125 I was purchased from NEN. VIP was iodinated using the chloramine T procedure (Christophe et al. (1976) J. Biol. Chem. 251:4629-4634). ^125 I-VIP was purified using gel filtration techniques. VIP peptides were purchased from Peninsula Laboratories Inc. (San Carlos, Calif.).

[2] = test system: castrated rats injected with testosterone; test: Sexual behavior of castrated rats supplemented with testosterone; type: in vivo, rat
Description: Rats were castrated and injected with testosterone (4 μg/100 g BW) daily for 14 consecutive days. VIP (5 μg/animal) and the antagonists (30 μg/animal) were injected ip in a volume of 0.25 ml. Initial experiments were conducted using iv injections; however, as no significant differences were observed between iv and ip administration, ip injections were chosen in this model. When comparisons were made, the same group of rats was injected with one peptide and, after a period of at least 24 hr, with another peptide.

VIP receptor = test: [125I]VIP binding to rat cortical astrocyte (glial) cell cultures; conditions: 60 pM [125I]VIP, intact cells, 4° C.; for displacement of VIP binding: 10 μM
Description: Rat cortical astrocyte cultures were prepared by previously described methods (Evans et al. (1984) J. Neurochem. 43:131; Brenneman et al.(1987) J. Cell Biol. 104:1603). VIP binding studies were conducted on intact cells at 4° C., using PBS containing 0.1% BSA. The cultures (1 mg protein/35 mm culture dish) were incubated with either VIP or the antagonist (10 μM to 1 pM) for 30 min before the addition of 60 pM [^125 I]VIP at Tyr-22 (2000 Ci/mmol; Amersham Corp., Arlington Heights, Ill). Labeled VIP was incubated with the cultures for 1 hr; the medium was then removed, and cells were washed three times by the addition and rapid removal of 1 ml PBS (at 4° C.). The labeled cells were dissolved in 0.02N NaOH and transferred for radioactivity counting.

NCI-H522 = test: Soft agar colony formation, NCI-H522; type: cell-based; conditions: 1 μM, 2 weeks
Description: (§1) In order to test whether the VIP-neurotensin hybrid antagonist inhibited the growth of NSCLC, single viable cells (10^4) were plated in soft agar in the absence and presence of 1 μM VIP-neurotensin hybrid antagonist. After 2 weeks, colonies were stained with a vital dye and live colonies (>[…]) counted. The colony fraction (colonies in the presence of the VIP-neurotensin hybrid antagonist relative to the number of basal colonies) was calculated. Cell lines NCI-H522, NCI-H838, and NCI-H1246 had colony fractions of 0.45±0.16, 0.76±0.04, and 1.47±0.30, respectively. The VIP-neurotensin hybrid antagonist inhibited colony formation of cell lines NCI-H522 and NCI-H838 but not NCI-H1246.

NCI-H838 = test: Soft agar colony formation, NCI-H838; type: cell-based; conditions: 1 μM, 2 weeks
Description: as §1

NCI-H1246 = test: Soft agar colony formation, NCI-H1246; type: cell-based; conditions: 1 μM, 2 weeks
Description: as §1

[3] = test system: pituitary-transplanted male rats; test: Sexual behavior of pituitary-grafted gonadally intact male rats; type: in vivo, rat; conditions: 5 ug iv
From the text: (§2) Male rats were sexually experienced Wistar-derived animals (250-300 g), approximately 3 months old from the Department of Hormone Research, Weizmann Institute of Science. All rats were kept in a 12-hr light, 12-hr dark cycle. Experiments were always conducted within the dark period 2-6 hrs after the onset of darkness. Before testing, each male was put in a separate cage for a period of at least 1 hr. A sexually receptive female (as tested by vaginal smearing) was introduced to each male. Latencies were defined as the intervals between copulatory behaviors (mounts and intromissions). These were recorded over a 15-min period. The latencies to the first copulatory event are reported separately.
This procedure results in hyperprolactinemia and a decrease in sexual potency in male rats. Pituitary-transplanted male rats (8 weeks after transplantation) were injected with 5 μg VIP, iv. As a control, saline iv was injected at identical volumes. The peptide was injected into the tail vein, restraining the animal by hand (two people were involved in the actual injection). The animals were subjected to the behavioral tests immediately after the injection. At least 24 hr elapsed between two consecutive tests per animal (i.e. between saline injection and VIP injection). The doses of VIP were deduced from those used to induce penile erection in men (Ottesen et al. (1984) Br. Med. J. 288:9). The statistical analysis involved a single test measurement per animal.

castrated rats = test: Sexual behavior of castrated rats without testosterone supplementation; type: in vivo, rat
From the text: as §2
After castration, the animals lose sexual activity in a time-dependent manner (Bradshaw et al. (1981) Endocrinology 109:1047; Reach et al. (1946) J. Exp. Zool. 101:91), and eventually all sexual activities are blocked. […] VIP (5 μg/animal) and the antagonists (30 μg/animal) were injected ip in a volume of 0.25 ml. Initial experiments were conducted using iv injections; however, as no significant differences were observed between iv and ip administration, ip injections were chosen in this model. When comparisons were made, the same group of rats was injected with one peptide and, after a period of at least 24 hr, with another peptide. The other parameters used for the experiment are described above.
The second paradigm was the castrated rat model.

cAMP levels in 5M2 cells = test: cAMP radioimmunoassay in 5M2 cells; type: cell-based; conditions: 5 min exposure
Description: The cAMP assays were performed by radioimmunoassay. 5M2 cells were exposed to stimuli in SIT medium (RPMI-1640 containing 10^-8 M Se2 O3, 1 μg/ml insulin and 3×10^-8 M transferrin) containing […] isobutyl-methyl-xanthine. After 5 min, the reaction was quenched by adding an equal volume of ice cold ethanol. The samples were vortexed and an aliquot of supernatant removed and added to 100 μl of 50 mM sodium acetate (pH 6.2). The sample (25 μl) was acetylated at 4° C. by adding 10 μl of triethylamine followed by 5 μl of acetic anhydride. Then 200 μl of goat anti-cyclic AMP antibody was added followed by 8,000 cpm of ^125 I-2-succinyl (tyrosine methyl ester)-cyclic AMP (NEN). After incubation for 16 hr at 4° C., 1 ml of charcoal suspension (2 mg/ml Norit-A charcoal in 100 mM phosphate buffer, pH 6.3, which contains 0.25% BSA) was added, the tubes vortexed and centrifuged at 1,500×g for 10 min. An aliquot (1 ml) of supernatant, which contains radiolabeled antigen-antibody complex, was counted in a gamma counter.

[4] = test system: NSCLC VIP receptors (EPLC-65H membranes); test: 125I-VIP binding to EPLC-65H membranes
[5] = coinjected ip with VIP at 3-fold molar excess

Q: Which IC50 [1] does the source give for “GHRH: unlabeled peptide tested for specificity of 125I-VIP binding” here?
A: Its IC50 is 20 nM.

Q: With LMYPTYLK [octamere] as the substance, how does the “effect on VIP-stimulated sexual behavior” value ([2]; coinjected with VIP (5 ug), 20-fold molar excess, 30 ug/animal ip) read?
A: The value was “specifically inhibited VIP effects on sexual behavior”.

Q: How did the “effect on VIP-stimulated sexual activity” value [2, 5] turn out when “Lys-Pro-Arg-Arg-Pro-Tyr-Thr-Asp-Asn-Tyr-Thr-Arg-Leu-Arg-Lys-Gln-Met-Ala-Val-Lys-Lys-Tyr-Leu-Asn-Ser-Ile-Leu-Asn-NH2 (KPRRPYTDNYTRLRKQMAVKKYLNSILN-NH2) [VIP-neurotensin hybrid antagonist]” was run?
A: Its value is “complete blockade of VIP activity”.

Q: What about the “sexual activity values lower than the control values” [2, 5] of the same substance?
A: Its value is 2 fold.

Q: What about the “latency to the first copulatory event” value ([2]; coinjected ip with VIP at 3-fold molar excess, 40±9 with VIP alone) of the same substance?
A: The value was 92 ± 20 s.

Q: What about the “rate of copulatory events” value ([2]; injected by itself, 10 animals, from 1.66±0.12) of the same substance?
A: The value was 1.16±0.11.

Q: What about the intromission interval ([2]; injected by itself, 10 animals, from 36.9±2.4) of the same substance?
A: Its intromission interval is 53.4 ± 8.6 s.

Q: What about the IC50 (VIP receptor; read-out: IC50, first binding site of biphasic displacement curve) of the same substance?
A: Its IC50 is 0.05 nM.

Q: And the IC50 (VIP receptor; read-out: IC50, second binding site of biphasic displacement curve)?
A: The IC50 was 100 nM.

Q: And the “displacement of VIP binding” value (VIP receptor)?
A: Its value is 85-90%.

Q: What about the IC50 [1] of the same substance?
A: Its IC50 is 10 nM.

Q: And the “colony fraction (colonies with antagonist relative to basal colonies)” value (NCI-H522)?
A: The value was 0.45±0.16.

Q: And the “colony fraction (colonies with antagonist relative to basal colonies)” value (NCI-H838)?
A: Its value is 0.76±0.04.

Q: And the “colony fraction (colonies with antagonist relative to basal colonies)” value (NCI-H1246)?
A: The value was 1.47±0.30.

Q: What does the source list for “VIP: a 28 amino acid peptide with an amidated C-terminal; widely distributed peptide hormone”?
A: mean latency to the first mount and intromission [3]: 23 ± 4 s; mean interval between copulatory events ([3]; 15-min test, vs saline): significant reduction; rate of copulation ([3]; 15-min test, vs saline): significant increase; decrease in the latency to the first intromission ([3]; vs control): 2- to 3 fold; rats that ejaculated ([3]; 10-20% before treatment): all of the rats ejaculated; drop in the intervals between copulatory events (including latency to first intromission) (castrated rats; 14 days after castration, 5 ug ip): 2- to 4 fold; intromission latency (castrated rats; 14 days after castration, 5 ug ip, six animals, 90±16 before): 35 ± 2.4 s; animals that ejaculated (castrated rats; model without testosterone supplementation, after VIP treatment): 1 of 6; decrease in intervals (intromission latencies) between copulatory events ([2]; 5 ug ip): 2 fold; latency to the first intromission ([2]; 5 ug ip, nine animals, 74±10 without VIP): 40 ± 9 s; increase in the rate of intromissions before ejaculation or end of test period ([2]; 5 ug ip, vs saline injection): ~2 fold; animals that ejaculated ([2]; after VIP treatment, 15 animals): 80-100%; displacement of VIP binding (VIP receptor): 75%; IC50 [1]: 10 nM; ED50, increase of cAMP levels (cAMP levels in 5M2 cells): 10 nM

Q: Which results are given for “^125 I-VIP: VIP iodinated using the chloramine T procedure; radiolabeled VIP”?
A: Kd ([1]; read-out: Kd, high affinity site (Scatchard)): 0.7 nM; Kd ([1]; read-out: Kd, low affinity site (Scatchard)): 20 nM; time at which half of the specific binding was reversed (dissociation) ([1]; after addition of 1 μM unlabeled VIP): 40 min; time to half maximal specific binding (association) [4]: 20 min; time to maximal specific binding (association) [4]: 60 min

Q: With helodermin as the substance, how does the IC50 [1] read?
A: The IC50 was 100 nM.

Q: What does the source list for “peptide histidine isoleucine amide (HADGVFTSDYSRLLGQISAKKYLESLI-NH2; UniProt P01283 81-107, looked up) [PHI, cosynthesized with VIP on the same protein precursor]”?
A: average latency to intromissions and rate of copulatory events, difference from VIP by itself ([2]; PHI by itself or VIP plus PHI equimolar): 2 fold; animals that ejaculated ([2]; in the presence of PHI, 5 ug iv): one of nine; effect on rat sexual behavior ([2]; peptide by itself (5 ug iv) or with VIP): inhibited rat sexual behavior and VIP-induced rat sexual behavior; IC50 [1]: 80 nM

Q: How did the IC50 [1] turn out when secretin was run?
A: The IC50 was 300 nM.
